{
  "source": "patent US10709743B2",
  "about": "“Pharmaceutical wound healing composition” (Council of Scientific and Industrial Research, priority 2015, dated 2020)",
  "key": {"Wister rats (Male) [1]": {"system": "Wister rats (Male)", "assay": "Incision wound model, wound size measurement", "assay_type": "in vivo", "parameters": "unit not given here", "settings": "individual animals SR NO 1-6, applied once a day"}, "Wister rats (Male) [2]": {"system": "Wister rats (Male)", "assay": "Incision wound model, wound size measurement", "assay_type": "in vivo", "parameters": "unit not given here", "settings": "average of six animals", "protocol": "The animals were housed in a standard individual metal cages and room was maintained at 22±1° C. with an alternating 12 h light-dark cycle. Food and water were provided ad libitum. All the experiments on animals were conducted after obtaining permission from Institutional Animal Ethical Committee of the Institute.\nAnimals were divided into two groups (six animals each).\nAll animals of two groups were anesthetized with an aesthetic ether, and a paravertebral long incision of 4.4 cm length were made through the skin and cutaneous muscle at a distance about 1.5 cm from the middle on right side of the depilated back.\nAll groups (A and B) of animals received sufficient amount of formulation applied externally (as depicted in table No. 2). All the test formulations were applied once a day for 10 days starting from the day of incision. Wound-healing property was evaluated by wound length and wound closure time.\nEvery alternative days wound size contraction was measured. By placing transparent blotting paper carefully on the wounded part of rats marking were done by permanent marker and size of reduction in wound noted."}, "[3]": {"settings": "cited from earlier work"}},
  "note": "Values joined by “and” are separate entries in the source; they are usually repeats but may differ in a detail not shown here. Identical values can stand only once.",
  "data": [
    {"substance": "Sericin [Group C]", "values": [
      {"measurement": "wound size", "setting": "Wister rats (Male) [1]; DAY 2", "result": "26 (2×) and 24 and 25 and 30 (2×)"},
      {"measurement": "wound size", "setting": "Wister rats (Male) [1]; DAY 10", "result": "9 and 6 (3×) and 7 and 5"},
      {"measurement": "wound size", "setting": "Wister rats (Male) [1]; DAY-4", "result": "21 and 23 (2×) and 27 and 28 and 24"},
      {"measurement": "wound size", "setting": "Wister rats (Male) [1]; DAY-6", "result": "20 and 22 (2×) and 25 and 27 and 24"},
      {"measurement": "wound size", "setting": "Wister rats (Male) [1]; DAY-8", "result": "18 and 16 (3×) and 17 and 15"},
      {"measurement": "wound size AVG", "setting": "Wister rats (Male) [2]; DAY 2", "result": 26.83},
      {"measurement": "wound size AVG", "setting": "Wister rats (Male) [2]; DAY 10", "result": 6.5},
      {"measurement": "wound size AVG", "setting": "Wister rats (Male) [2]; DAY-4", "result": 24.33},
      {"measurement": "wound size AVG", "setting": "Wister rats (Male) [2]; DAY-6", "result": 23.33},
      {"measurement": "wound size AVG", "setting": "Wister rats (Male) [2]; DAY-8", "result": 16.33}
    ]},
    {"substance": "silk sericin", "values": [
      {"measurement": "scavenging of hydroxyl, superoxide and DPPH radicals", "setting": "[3]; ESR and ultraviolet spectrophotometry", "result": "strong scavenging capacity"},
      {"measurement": "antioxidative activity on the peroxidation of linoleic acid", "setting": "[3]; linoleic acid system", "result": "potent antioxidative activity"}
    ]}
  ]
}
